One assay concerns CCRF-CEM. The assay is described as follows: MTT cytotoxicity assay, CCRF-CEM. Particulars: 72 h. It is filed as cell-based, human. The source says: (§1) One of the parameters used as the basis for colorimetric assays is the metabolic activity of viable cells. For example, a microtiter assay which uses the tetrazolium salt MTT is now widely used to quantitate cell proliferation and cytotoxicity (Hájduch et al., Cytotechnology, 19, 1996, 243-245). For instance, this assay is used in drug screening programs and in chemosensitivity testing. Because tetrazolium salts are cleaved only by metabolically active cells, these assays exclusively detect viable cells. In the case of the MTT assay, yellow soluble tetrazolium salt is reduced to a coloured water-insoluble formazan salt. After it is solubilized, the formazan formed can easily and rapidly be quantified in a conventional ELISA plate reader at 570 nm (maximum absorbancy). The quantity of reduced formazan corresponds to the number of vital cells in the culture.
(§2) All cells were purchased from the […] (ATCC), unless otherwise indicated: the CEM line are highly chemosensitive T-lymphoblastic leukemia cells, K562 cells were derived from patient with […] with bcr-abl translocation, A549 line is lung adenocarcinoma, HCT116 is colorectal tumor cell line and its p53 gene knock-down counterpart (HCT116p53−) is a model of human cancers with p53 mutation frequently associated with poor prognosis. The daunorubicin resistant subline of CEM cells (CEM-DNR bulk) and paclitaxel resistant subline K562-tax were selected in our laboratory by the cultivation of maternal cell lines in increasing concentrations of daunorubicine or paclitaxel, respectively (Noskova et al., Neoplasma 49, 2002, 418). The CEM-DNR bulk cells overexpress MRP-1 protein, while K562-tax cells overexpress P-glycoprotein, both proteins belong to family of ABC transporters and are involved in primary and/or acquired multidrug resistance phenomenon (Noskova et al., Neoplasma 49, 2002, 418). The cells were maintained in Nunc/Corning 80 cm^2 plastic tissue culture flasks and cultured in cell culture medium (DMEM/RPMI 1640 with 5 g/l glucose, 2 mM glutamine, 100 U/ml penicillin, 100 μg/ml streptomycin, 10% fetal calf serum, and NaHCO3).
(§3) This assay was performed according to Hajduch et al., Anti-Cancer Drugs 10, 1997, 1007. Cell suspensions were prepared and diluted according to the particular cell type and the expected target cell density (2 500-30 000 cells/well based on cell growth characteristics). Cells were added by pipette (80 μl) into 96-well microtiter plates. Inoculates were allowed a pre-incubation period of 24 h at 37° C. and 5% CO2 for stabilization. Four-fold dilutions, in 20-μl aliquots, of the intended test concentration were added to the microtiter plate wells at time zero. All test compound concentrations were examined in duplicate. Incubation of the cells with the test compounds lasted for 72 h at 37° C., in a 5% CO2 atmosphere at 100% humidity. At the end of the incubation period, the cells were assayed using MTT. Aliquots (10 μl) of the MTT stock solution were pipetted into each well and incubated for a further 1-4 h. After this incubation period the formazan produced was dissolved by the addition of 100 μl/well of 10% aq SDS (pH=5.5), followed by a further incubation at 37° C. overnight. The optical density (OD) was measured at 540 nm with a Labsystem iEMS Reader MF. Tumor cell survival (TCS) was calculated using the following equation: TCS=(ODdrug-exposed well/mean ODcontrol wells)×100%. The TCS50 value, the drug concentration lethal to 50% of the tumor cells, was calculated from appropriate dose-response curves.

The next assay concerns A549. The assay is described as follows: MTT cytotoxicity assay, A549. In kind it is cell-based, human. As to conditions: 72 h.
Excerpt: as §1, §2, §3
(In general: Formazan colour is commonly taken as a measure of viable cells.)

In the next assay the test system is HCT116. As to the kind of experiment: MTT cytotoxicity assay, HCT116. In kind it is cell-based, human. Particulars: 72 h.
Excerpt: as §1, §2, §3

The subject of another assay is BJ. As to the kind of experiment: MTT cytotoxicity assay, BJ. In kind it is cell-based. As to conditions: 72 h.
Excerpt: as §1, §3

A further assay relates to HCT116 cells. The assay is described as follows: Flow cytometric measurement of intracellular pH (pHi), HCT116 expressing CAIX. It is filed as cell-based, human. Particulars: for pHi: HCT116, carboranes at 1 μM, 24 hour incubation, control 7.516; for intracellular acidification in HCT116 cells: carboranes 1 μM versus acetazolamide 50 μM. As to the method: (§4) The effect of carborane CAIX (carbonic anhydrase IX) inhibitors was evaluated on colorectal cancer cell line HCT116 expressing CAIX enzyme versus CA IX negative cell line of T-lymphoblastic leukemia CCRF-CEM. Acetazolamide, a known inhibitor of CAIX, was used as a standard. HCT116/CCRF-CEM cells were cultivated in McCoy/RPMI Media supplemented with 10% FCS and antibiotics and seeded at high density ([…] per 3.5 cm dish) to induce pericellular hypoxia and thus stimulate CA IX expression. Measurement of pHi was assessed as described in Cianchi et al. [Cianchi F., et al. Selective inhibition of carbonic anhydrase IX decreases cell proliferation and induces […] apoptosis in human cancer cells. The Journal of Pharmacology and Experimental Therapeutics, 2010, Vol. 334, No. 3, 710-719].
(§5) […] The pHi was measured by flow cytometry in cell cultures pretreated with 10 μM of pH sensitive probe carboxyseminaphtorhoda-fluor-1-acetoxymethyl ester (SNARF, Invitrogen, CA) for 15 min at 37° C. After incubation, the cells were washed twice with PBS. Because the addition of bicarbonate can affect pHi, all incubation and cell washes were performed in bicarbonate-free buffer. SNARF was excited at 488 nm and emitted at 580 and 640 nm. The ratio of the emission wavelengths at 640/580 nm was then used to estimate the pHi from a calibration curve. The calibration curve was prepared by nigericin clamp technique. In this method, after the SNARF labeling of untreated cells, aliquots of cell suspensions were re-suspended in a high potassium containing buffer at specific pH (usually 6.8, 7.0, 7.2, 7.4, 7.6 and 7.8). The cell suspensions were then clamped at a specific pH value by the addition of 0.03 μM nigericin (Sigma-Aldrich). Nigericin is a ionophore that allows the exchange of H for K ions, thus abolishing the pH gradient across the cell membrane. When the internal and external K concentrations are approximately equal, the pH rapidly equilibrates to the pH of the bathing solution. A total of 20,000 events were acquired on a FACS ARIA II flow cytometer (Becton. Dickinson) for further analysis.
(§6) The fluorescent ratio values (640/580 nm) calculated for each pH point were further used to construct calibration curve in Prism software (GraphPad Software, Inc., San Diego, Calif.), from which the pHi values in treated cells were determined (Table 3).
A general note: In flow cytometry, cells or beads pass a laser one at a time.

A further assay has as its system CCRF-CEM cells. The assay is described as follows: Flow cytometric measurement of intracellular pH (pHi), CA IX negative CCRF-CEM. Particulars: carboranes at 1 μM, 24 hour incubation, control 7.362. It is filed as cell-based, human. As to the method:
as §4, §5, §6

The values that follow come from patent US9290529B2, “Carbonic anhydrase inhibitors and method of their production” (USTAV ORGANICKE CHEMIE A BIOCHEMIE AKADEMIE VED CESKE …, priority 2011, dated 2016).

“1-methylenesulfamide-1,7-dicarba-closo-dodecaborane [CB-19]”: the concentration for half-maximal inhibition (IC50) was 71.9 ± 3.7 µM in the assay with CCRF-CEM, no less than 100 µM with A549, 89.3 ± 3.3 µM with HCT116 and no less than 100 µM with BJ. The results for the pHi in the assay with HCT116 cells and in the assay on CCRF-CEM cells were 7.542 and 7.319, respectively.

With “1-methylenesulfamide-3,3′-commo-bis(1,2-dicarba-3-cobalta(III)-closo-dodecabor)ate (1-) [CB-5]”, the IC50 is 85.4 ± 22.6 µM in the assay with CCRF-CEM, no less than 100 µM in the assay with A549, 75.3 ± 4.1 µM with HCT116 and no less than 100 µM in the assay with BJ. Besides, the figures for the pHi in the assay with HCT116 cells and in the assay with CCRF-CEM cells were 7.483 and 7.378, respectively.

“1-methylenesulfamide-9-phenyl-1,2-dicarba-closo-dodecaborane and 1-methylene-sulfamide-12-phenyl-1,2-dicarba-closo-dodecaborane [CB-8]”: the IC50 is 73.4 ± 6.8 µM in the assay with CCRF-CEM, 96 ± 6.2 µM with A549, 97.4 ± 3.4 µM with HCT116 and no less than 100 µM with BJ. The values for the pHi with HCT116 cells and in the assay on CCRF-CEM cells were 7.112 and 7.427, respectively. Also, in the assay with HCT116 cells, the “intracellular acidification in HCT116 cells” value (“intracellular acidification” for short) was “better than acetazolamide”.

As for “1-methylensulfamide-1,2-dicarba-closo-dodekaborane [CB-1]”, the IC50 was 61.8 ± 10.6 µM in the assay with CCRF-CEM, 94.9 ± 4.3 µM in the assay on A549, 63.9 ± 5.7 µM in the assay with HCT116 and no less than 100 µM with BJ. The pHi in the assay on HCT116 cells is given as 7.561; in the assay with CCRF-CEM cells, 7.429.

Turning to “1-sulfamide-closo-1-carbadodecaborate (1-) [CB-3]”, the IC50 in the assay on CCRF-CEM, with A549, in the assay on HCT116 and in the assay on BJ was no less than 100 µM each time. The pHi is listed as 7.479 in the assay on HCT116 cells and 7.362 in the assay with CCRF-CEM cells.

“7-methylensulfamide-8-phenyl-(7,8-nido-dikarbaundekabor)ate (1-) [CB-6]”: the IC50 in the assay with CCRF-CEM is 20.2 ± 1.7 µM; with A549, 77.8 ± 10.8 µM; in the assay with HCT116, 78.4 ± 17 µM; in the assay with BJ it was no less than 100 µM. Moreover, the pHi in the assay with HCT116 cells is 7.192; in the assay on CCRF-CEM cells, 7.352. Further, in the assay on HCT116 cells, the “intracellular acidification” value was “better than acetazolamide”.

As for “7-methylensulfamide-(7,8-nido-dicarbaundekaborate) (1-) [CB-2]”, the IC50 in the assay on A549, with HCT116 and in the assay with BJ was no less than 100 µM throughout. Also, the results for the pHi with HCT116 cells and in the assay on CCRF-CEM cells were 7.572 and 7.308, respectively.

With “8-butyloxysulfamide-3,3′-commo-bis(decahydro-1,2-dicarba-3-cobalta(III)-closo-dodekabor)ate (1-) [CB-16]”, the IC50 in the assay on CCRF-CEM was 89.9 ± 6 µM; in the assay with A549 it was no less than 100 µM; in the assay on HCT116, 84.8 ± 3 µM; in the assay with BJ it was no less than 100 µM. Also, the figures for the pHi in the assay with HCT116 cells and in the assay with CCRF-CEM cells were 7.563 and 7.442, respectively.

On to “8-diethyleneoxysulfamide-3,3′-commo-bis(decahydro-1,2-dicarba-3-cobalta(III)-closo-dodekabor)ate (1-) [CB-17]”, for which the IC50 is 95.1 ± 5 µM in the assay on CCRF-CEM, no less than 100 µM in the assay with A549, no less than 100 µM in the assay with HCT116 and no less than 100 µM with BJ. Besides, the results for the pHi in the assay on HCT116 cells and in the assay with CCRF-CEM cells were 7.571 and 7.412, respectively.

“8-ethylaminomethylsulfamide-8″-methoxy-3,3′-commo-bis(decahydro-1,2-dicarba-3-cobalta(III)-closo-dodecabor)ate (1-) [CB-15]”: the IC50 with CCRF-CEM was 17.3 ± 1.2 µM; in the assay with A549 it was 33.7 ± 7.7 µM; in the assay on HCT116, 16.6 ± 0.2 µM; with BJ it was 65.2 ± 4.4 µM. In addition, the results for the pHi in the assay with HCT116 cells and in the assay on CCRF-CEM cells were 7.343 and 7.472, respectively. The “intracellular acidification” value in the assay on HCT116 cells is “better than acetazolamide”.

With “8-methylensulfamide-8″-methoxy-3,3′-commo-bis(1,2-dicarba-3-cobalta(III)-closo-dodecabor)ate (1-) [CB-4]”, the 50% inhibitory concentration (IC50) in the assay on CCRF-CEM came to 61.7 ± 17.8 µM; in the assay on A549, 95.5 ± 3.7 µM; with HCT116, 69.2 ± 3 µM; with BJ, 76.4 ± 3.3 µM. Besides, the results for the pHi in the assay with HCT116 cells and in the assay with CCRF-CEM cells were 7.538 and 7.385, respectively.

Consider “8-propylenesulfamide-7-phenyl-(7,8-nido-dicarbaundecabor)ate (1-) [CB-13]”, for which the IC50 came out at 62 ± 3 µM in the assay with CCRF-CEM, 86.5 ± 4.6 µM with A549, 55.5 ± 1.8 µM in the assay with HCT116 and 88.4 ± 6.1 µM in the assay with BJ. The figures for the pHi with HCT116 cells and with CCRF-CEM cells were 7.51 and 7.452, respectively.

Turning to “9-sulfamide-9′-amine-2,2′-commo-bis(1,7,9-trikarba-2-ferra(II)-kloso-dodekabor)ane [CB-12]”, the IC50 in the assay on CCRF-CEM, in the assay with A549, in the assay with HCT116 and with BJ was no less than 100 µM each time. Further, the pHi with HCT116 cells is listed as 7.704; in the assay with CCRF-CEM cells, 7.395.

Turning to “10-sulfamide-9′-amine-2,2′-commo-(1,7,10-tricarba-1′,7′,9′-tricarba-2-ferra (II)-closo-dodekabor)ane [CB-10]”, the IC50 with CCRF-CEM is 79.5 ± 22.7 µM; with A549, no less than 100 µM; with HCT116, 96.4 ± 4.5 µM; in the assay with BJ, no less than 100 µM. Further, the pHi in the assay on HCT116 cells worked out at 7.688; with CCRF-CEM cells it was 7.328.

For “Di(methylenesulfamide)-1,7-dicarba-closo-dodecaborane [CB-20]”, the IC50 in the assay with CCRF-CEM was 84.5 ± 5.3 µM; in the assay with A549, no less than 100 µM; with HCT116, 99.6 ± 1.1 µM; in the assay on BJ, no less than 100 µM. The pHi in the assay with HCT116 cells is 7.561; in the assay with CCRF-CEM cells, 7.422.

One may read the IC50 as the point on the concentration scale where inhibition reaches its midpoint. High values mean lower potency, low ones higher potency.
